US5397774A, “Pyrazolopyrimidine and pyrimidinyl bisphosphonic esters as anti-inflammatories” (The Upjohn Company, priority 1993, dated 1995)

Tested on: DTH granuloma (DTH GRA) lesion in mBSA-sensitized mice
Assay: Delayed Type Hypersensitivity Granuloma Assay (DTH GRA) model for inflammation
Type: in vivo, mouse
Conditions: for % Inhibition / inhibition in vivo at 10 mg/kg: 10 mg/kg PO, mouse DTH granuloma excised after nine days; for inhibition in vivo at 10 mg/kg / inhibition in vivo at 50 mg/kg: 216 h; for inhibition in vivo at 50 mg/kg: PO, footnote a: tested at 50 mg/kg
Experimental: This assay is described by Dunn, C.
Briefly, mBSA-sensitized mice have a DTH granuloma (DTH GRA) lesion induced by subcutaneously implanting a mBSA-soaked filter which is excised after nine days. Compounds are administered to the mice to determine their effect on the lesions. The results are recorded as percent inhibition. […] Inhibition of 10 to 20% is considered to indicate anti-granuloma activity.
Again, as in Table 1, the results are recorded as percent inhibition. […] Inhibition of 10 to 20% is considered to indicate anti-granuloma activity. […]

[1] = Mus musculus, po, Table 1, Formula 1 compounds
[2] = Mus musculus, po, Table 2, Formula 2 compounds
[3] = Table 2, Formula 2 compounds, 10 mg/kg

3-(7-Chloro-3-(2-fluoro-phenyl)-4(3H)-quinazolinone)-propylidine)bisphosphonic acid tetraethyl ester [qq]
% Inhibition (Table 2, Formula 2 compounds): 29%

3-(7-Chloro-3-(α,α,α-trifluoro-o-tolyl)-4(3H)-quinazolinone)-propylidine)bisphosphonic acid tetraethyl ester [pp]
% Inhibition (Table 2, Formula 2 compounds): 24%

CCOP(=O)(OCC)C(CCc1cc(C)nc2c(C#N)c(C)nn12)P(=O)(OCC)OCC [a, (3-(3-Cyano-2,5-dimethyl-pyrazolo(1,5-a)pyrimidin-7-yl)propylidene)bisphosphonic acid tetraethyl ester]
inhibition in vivo at 10 mg/kg [1]: 46%

CCOP(=O)(OCC)C(CCc1nc(-c2ccc(Br)cc2)cc(=O)n1C)P(=O)(OCC)OCC [aa, (3-(2-(3-Methyl-4-oxo-6-(4-bromophenyl)-4(3H)-pyrimidinyl))-propylidine)bisphosphonic acid tetraethyl ester]
inhibition in vivo at 10 mg/kg [2]: 20%

CCOP(=O)(OCC)C(CCc1nc(-c2ccc(OC)cc2)cc(=O)n1C)P(=O)(OCC)OCC [bb, (3-(2-(3-Methyl-4-oxo-6-(4-methoxyphenyl)-4(3H)-pyrimidinyl))-propylidine)bisphosphonic acid tetraethyl ester]
inhibition in vivo at 10 mg/kg [2]: 22%

CCOP(=O)(OCC)C(CCc1cc(C)nc2c(C#N)c(-c3ccccc3)nn12)P(=O)(OCC)OCC [c, (3-(3-Cyano-5-methyl-2-phenyl-pyrazolo(1,5-a)pyrimidin-7-yl)-propylidene)bisphosphonic acid tetraethyl ester]
inhibition in vivo at 10 mg/kg [1]: 26%

CCOP(=O)(OCC)C(CCc1nc(-c2ccc(N(C)C)cc2)cc(=O)n1C)P(=O)(OCC)OCC [cc, (3-(2-(3-Methyl-4-oxo-6-(4-dimethylaminophenyl)-4(3H)-pyrimidinyl))-propylidine)bisphosphonic acid tetraethyl ester]
inhibition in vivo at 10 mg/kg [2]: 63%

CCOP(=O)(OCC)C(CCc1cc(C)nc2c(Br)c(C)nn12)P(=O)(OCC)OCC [d, (3-(3-Bromo-2,5-dimethyl-pyrazolo(1,5-a)pyrimidin-7-yl)-propylidene)bisphosphonic acid tetraethyl ester]
inhibition in vivo at 10 mg/kg [1]: 44%

CCOP(=O)(OCC)C(CCc1cc(C)nc2c([N+](=O)[O-])c(C)nn12)P(=O)(OCC)OCC [e, (3-(3-Nitro-2,5-dimethyl-pyrazolo(1,5-a)pyrimidin-7-yl)-propylidene)bisphosphonic acid tetraethyl ester]
inhibition in vivo at 10 mg/kg [1]: 41%

CCOc1ccc(-c2cc(=O)n(C)c(CCC(P(=O)(OCC)OCC)P(=O)(OCC)OCC)n2)cc1 [ee, (3-(2-(3-Methyl-4-oxo-6-(4-ethoxyphenyl)-4(3H)-pyrimidinyl))-propylidine)bisphosphonic acid tetraethyl ester]
inhibition in vivo at 10 mg/kg [2]: 46%

CCOP(=O)(OCC)C(CCc1cc(C)nc2cc(OC(=O)c3ccccc3)nn12)P(=O)(OCC)OCC [f, (3-(2-Benzoyloxy-5-methyl-pyrazolo(1,5-a)pyrimidin-7-yl)-propylidene)bisphosphonic acid tetraethyl ester]
inhibition in vivo at 10 mg/kg [1]: 41%

CCOP(=O)(OCC)C(CCc1cc(C)nc2cc(OCc3ccccc3)nn12)P(=O)(OCC)OCC [g, (3-(2-Benzyloxy-5-methyl-pyrazolo(1,5-a)pyrimidin-7-yl)-propylidene)bisphosphonic acid tetraethyl ester]
inhibition in vivo at 10 mg/kg [1]: 44%

CCOP(=O)(OCC)C(CCc1nc(-c2ccccc2)cc(=O)n1Cc1ccccc1)P(=O)(OCC)OCC [gg, (3-(2-(3-Benzyl-4-oxo-6-phenyl-4(3H)-pyrimidinyl))-propylidine)bisphosphonic acid tetraethyl ester]
% Inhibition [3]: 20%

CCCCCCOc1cc2nc(C)cc(CCC(P(=O)(OCC)OCC)P(=O)(OCC)OCC)n2n1 [h, (3-(2-Hexyloxy-5-methyl-pyrazolo(1,5-a)pyrimidin-7-yl)propylidene)-bisphosphonic acid tetraethyl ester]
inhibition in vivo at 10 mg/kg [1]: 49%

C=CCn1c(CCC(P(=O)(OCC)OCC)P(=O)(OCC)OCC)nc(-c2ccccc2)cc1=O [hh, (3-(2-(3-Allyl-4-oxo-6-phenyl-4(3H)-pyrimidinyl))-propylidine)bisphosphonic acid tetraethyl ester]
% Inhibition [3]: 11%

CCOP(=O)(OCC)C(CCc1cc(C)nc2cc(-c3ccccc3)nn12)P(=O)(OCC)OCC [i, (3-(5-Methyl-2-phenyl-pyrazolo(1,5-a)pyrimidin-7-yl)-propylidene)bisphosphonic acid tetraethyl ester]
inhibition in vivo at 10 mg/kg [1]: 47%

CCOP(=O)(OCC)C(CCc1nc(-c2ccccc2)cc(=O)n1CC)P(=O)(OCC)OCC [ii, (3-(2-(3-Ethyl-4-oxo-6-phenyl-4(3H)-pyrimidinyl))-propylidine)bisphosphonic acid tetraethyl ester]
inhibition in vivo at 10 mg/kg [2]: 12%

CCOP(=O)(OCC)C(CCc1cc(C)nc2c(I)c(-c3ccccc3)nn12)P(=O)(OCC)OCC [j, (3-(3-Iodo-5-methyl-2-phenyl-pyrazolo(1,5-a)pyrimidin-7-yl)-propylidene)bisphosphonic acid tetraethyl ester]
inhibition in vivo at 10 mg/kg [1]: 53%

CCCn1c(CCC(P(=O)(OCC)OCC)P(=O)(OCC)OCC)nc(-c2ccccc2)cc1=O [jj, (3-(2-(3-Propyl-4-oxo-6-phenyl-4(3H)-pyrimidinyl))-propylidine)bisphosphonic acid tetraethyl ester]
inhibition in vivo at 10 mg/kg [2]: 41%

CCOP(=O)(OCC)C(CCc1cc(C)nc2c(Cl)c(-c3ccccc3)nn12)P(=O)(OCC)OCC [k, (3-(3-Chloro-5-methyl-2-phenyl-pyrazolo(1,5-a)pyrimidin-7-yl)-propylidene)bisphosphonic acid tetraethyl ester]
inhibition in vivo at 50 mg/kg [1]: 31%

CCOP(=O)(OCC)C(CCc1cc(C)nc2c(Br)c(-c3ccccc3)nn12)P(=O)(OCC)OCC [l, (3-(3-Bromo-5-methyl-2-phenyl-pyrazolo(1,5-a)pyrimidin-7-yl)-propylidene)bisphosphonic acid tetraethyl ester]
inhibition in vivo at 50 mg/kg [1]: 23%

COP(=O)(OC)C(CCc1cc(C)nc2c(C#N)c(C)nn12)P(=O)(OC)OC [m, (3-(3-Cyano-2,5-dimethyl-pyrazolo(1,5-a)pyrimidin-7-yl)-propylidene)bisphosphonic acid tetramethyl ester]
inhibition in vivo at 10 mg/kg [1]: 41%

Cn1c(CCC(P2(=O)OCC(C)(C)CO2)P2(=O)OCC(C)(C)CO2)nc(-c2cc(F)c(N3CCCCC3)c(F)c2F)cc1=O [mm, (3-(2-(3-Methyl-4-oxo-6-(2,3,5-trifluoro-4-piperidinophenyl)-4(3H)-pyrimidinyl))-propylidine)bis(5,5-dimethyl-2,2'-dioxide-1,3,2-dioxaphosphorinane)]
inhibition in vivo at 10 mg/kg (Table 2, Formula 2 compounds): 50%

Cc1cc(CCC(P2(=O)OCC(C)(C)CO2)P2(=O)OCC(C)(C)CO2)n2nc(C)c(C#N)c2n1 [n, (3-(3-Cyano-2,5-dimethyl-pyrazolo(1,5-a)pyrimidin-7-yl)-propylidene)bis(5,5-dimethyl-2,2'-dioxide-1,3,2-dioxaphosphorinane)]
inhibition in vivo at 10 mg/kg (Table 1, Formula 1 compounds): 45%

CCOP(=O)(OCC)C(CCc1c(Cl)c(C)nc2c(C#N)c(C)nn12)P(=O)(OCC)OCC [o, (3-(6-Chloro-3-cyano-2,5-dimethyl-pyrazolo(1,5-a)pyrimidin-7-yl)-propylidene)bisphosphonic acid tetraethyl ester]
inhibition in vivo at 10 mg/kg [1]: 53%

CCOP(=O)(OCC)C(CCc1nc2cc(Cl)ccc2c(=O)n1C)P(=O)(OCC)OCC [oo]
% Inhibition (Table 2, Formula 2 compounds): 41%
